Where two headings read alike, the source gives them in different places. Bridge positions count the residues as written; N and C are the ends. Peptide text beside a SMILES is read from it.
Assays:
E. coli (ATCC 8739) [1] = type: cell-based, Escherichia coli
Procedure: (§1) As a previous study described in detail, the ability of R2AW and its analogues to inhibit and eradicate the formation of biofilm was investigated. The MBIC is the lowest concentration which inhibits the formation of biofilm. The MBEC is the minimum concentration that eradicates biofilm. Six bacterial strains were used, as described above. Briefly, the bacteria were cultured and then diluted to 5 × 10^5 CFU/mL. In MBIC assays, 1 μL of each concentration of R2AW and its analogues (ranging from 512 × 10^2 μM to 100 μM) was mixed with 99 μL of diluted bacterial suspension in a 96-well plate for 16-20 h at 37 °C. As for MBEC assays, 100 μL of cultured bacteria were seeded in a 96-well plate and incubated on the shaking incubator at 37 °C overnight for biofilm formation. Subsequently, each well was rinsed twice with 100 μL sterile PBS to remove planktonic cells, and then replaced with 100 μL of each concentration (ranging from 512 μM to 1 μM) of peptides. After 24 h incubation, the biofilm was washed twice with 100 μL of PBS and fixed with methanol. Next, the same volume of 0.1% crystal violet solution (Sigma-Aldrich, Gillingham, UK) was added to each well to stain the biofilm. After that, 100 μL of 30% of acetic acid (Sigma-Aldrich, Gillingham, UK) was transferred to each well for dissolution. The solutions were transferred into a new 96-well plate and the absorbances of wells was monitored using a Synergy HT plate reader set to 595 nm.

MRSA (NCTC 12493) [2] = type: cell-based, methicillin-resistant Staphylococcus aureus
Procedure: as §1

[3] = system: P. aeruginosa (ATCC 9027); type: cell-based, Pseudomonas aeruginosa
Procedure: as §1

[4] = system: K. pneumoniae (ATCC 43816); type: cell-based, Klebsiella pneumoniae
Procedure: as §1

MCF-7 = type: cell-based, human; conditions: 24 h
Procedure: (§2) Five human cancer cell lines of non-small-cell lung cancer H838, human prostate carcinoma PC-3, human neuronal glioblastoma U251MG, human breast cancer cell MCF-7, and colorectal carcinoma HCT116 were used to detect the antiproliferative abilities of R2AW and its five analogues. According to the procedures in a previous article, cells (8000 cells/well) were seeded into the 96-well tissue culture plates and incubated at 37 °C with 5% CO2 overnight. The solutions of R2AW and its analogues at concentrations of 10^−4 M to 10^−9 M were prepared in the serum-free medium. Next, cells in each well were treated with 100 μL of each peptide solution for 24 h. Subsequently, 10 μL of 5 mg/mL MTT (3-(4, 5-Dimethylthiazol-2-yl-)-2, 5-Diphehyltetrazolium Bromide) was added to each well followed by 37 °C incubation for 2 h. After that, the liquid in each well was removed and 100 μL of DMSO was added to dissolve the purple formazan. The plate was placed on a shaking incubator for 10 min, and the absorbance was detected at 550 nm using a Synergy HT plate reader (Biotech, Minneapolis, MN, USA).

U251MG = type: cell-based, human; conditions: 24 h
Procedure: as §2

PC-3 = type: cell-based, human; conditions: 24 h
Procedure: as §2

HCT116 = type: cell-based, human; conditions: 24 h
Procedure: as §2

H838 = type: cell-based, human; conditions: 24 h
Procedure: as §2

S. aureus (NCTC 10788) [5] = type: cell-based, Staphylococcus aureus
Procedure: as §1

[6] = system: five human cancer cell lines; type: cell-based; conditions: 24 h
Procedure: as §2

S. aureus (NCTC 10788) [7] = assay: microbe, parasite or virus in culture; type: cell-based; conditions: NCTC 10788, 18 h
Excerpt: (§3) The MIC and MBC assays were used to assess the inhibitory activities of all 5 analogues of R2AW on the growth of planktonic microorganisms. The MIC is the lowest concentration that prevents the viable growth of bacteria. The MBC is the lowest concentration that results in bacterial death. Six microorganisms were used to detect the antimicrobial activity of peptides, including Gram-positive bacteria S. aureus (NCTC 10788), MRSA (NCTC 12493), Enterococcus faecalis (E. faecalis) (NCTC 12697), Gram-negative bacteria E. coli […], Klebsiella pneumoniae (K. pneumoniae) (ATCC 43816), and Pseudomonas aeruginosa (P. aeruginosa) (ATCC 9027). According to the assay described previously, the microorganisms were inoculated at 37 °C overnight and diluted to 5 × 10^5 CFU/mL after reaching the logarithmic growth period. The peptide stock solution at the concentration of 512 × 10^2 μM was prepared and diluted to 100 μM by a 2-fold dilution. One μL of each concentration of peptide solution was incubated with 99 μL of bacterial subculture in the 96-well plate for 18 h at 37 °C. The absorbance was determined at a wavelength of 550 nm using a Synergy HT plate reader (Bio Tek, Washington, DC, USA). […] As for those wells that were clearly visible, 20 μL of the solution was dropped onto the Mueller Hinton agar (MHA) dish and then incubated at 37 °C overnight. The lowest concentration with no colony growth was determined as the MBC.

MRSA (NCTC 12493) [8] = assay: microbe, parasite or virus in culture; type: cell-based; conditions: MRSA (NCTC 12493)
Excerpt: as §3

E. faecium (NTCC 12697) [9] = assay: microbe, parasite or virus in culture; type: cell-based; conditions: NTCC 12697, 18 h
Excerpt: as §3

[10] = system: K. pneumoniae (ATCC 43816); type: cell-based; conditions: ATCC 43816, 18 h
Excerpt: as §3

E. coli (ATCC 8739) [11] = type: cell-based; conditions: ATCC 8739, 18 h
Excerpt: as §3

[12] = system: P. aeruginosa (ATCC 9027); type: cell-based; conditions: ATCC 9027, 18 h
Excerpt: as §3

E. faecium (NTCC 12697) [13] = type: cell-based
Procedure: as §1

Haemolysis assay = type: cell-based, horse; conditions: horse erythrocytes (washed red blood cell suspension); horse erythrocytes, up to 256 μM
Procedure: The haemolytic activity of R2AW and its five designed analogues on mammalian erythrocytes was evaluated using 2% defibrinated horse blood (TCS Biosciences Ltd., Buckingham, UK) as per a previous report. Two mL of fresh horse blood was transferred into a 50 mL tube and then washed with sterilised PBS. The supernatant was removed after centrifuging (930× g, 5 min). The centrifugation procedure was repeated until the supernatant was clear. After washing, the red blood cell pellet was diluted with PBS to achieve a 4% (v/v) erythrocyte suspension. The concentrations of R2AW and its designed derivatives were prepared from 512 μM to 2 μM by two-fold dilution in sterilised PBS. One hundred µL of red blood cell suspension was added into a 1.5 mL tube treated with the same volume of each concentration of peptide and incubated at 37 °C for 2 h. The red blood cell suspensions treated with 0.2% Triton X-100 and with PBS were regarded as positive control and negative control. After centrifugation at 930× g for 10 min, 100 μL of suspension was transferred to a 96-well plate, and the absorbance was obtained by use of a Synergy HT plate reader. The degree of haemolysis could be calculated using the following formula: Haemolysis = (absorbance (experimental groups) − absorbance (negative control))/(absorbance (positive control) − absorbance (negative control)) × 100%.

`CC[C@H](C)[C@@H]1NC(=O)[C@H](CCCCN)NC(=O)[C@@H](NC(=O)[C@H](CCCCN)NC(=O)[C@H](CC(C)C)NC(=O)[C@H](CCCCN)NC(=O)[C@H](CC(=O)O)NC(=O)[C@H](CC(C)C)NC(=O)[C@H](CC(C)C)NC(=O)[C@@H](NC(=O)[C@H](C)NC(=O)[C@H](C)NC(=O)[C@@H](NC(=O)[C@H](CC(N)=O)NC(=O)[C@H](CCCCN)NC(=O)[C@H](C)NC(=O)[C@@H](NC(=O)[C@H](CC(N)=O)NC(=O)[C@H](CCCCN)NC(=O)[C@H](C)NC(=O)[C@@H](NC(=O)[C@H](CC(=O)O)NC(=O)[C@H](CCSC)NC(=O)[C@H](Cc2ccccc2)NC(=O)CN)[C@@H](C)O)C(C)C)C(C)C)[C@@H](C)O)CSSC[C@@H](C(=O)O)NC(=O)CNC(=O)CNC(=O)[C@H]([C@@H](C)O)NC1=O` [R2AW] (H-GFMDTAKNVAKNVAATLLDKLKCKITGGC-OH; disulfide 23-29) showed an MBEC (E. coli (ATCC 8739) [1]) of 512 µM, an MBIC (E. coli (ATCC 8739) [1]) of 128 µM and an MBEC (MRSA (NCTC 12493) [2]; NCTC 12493) greater than 512 µM. The MBIC (MRSA (NCTC 12493) [2]; NCTC 12493) was 256 µM, the MBEC [3] was greater than 512 µM and the MBIC [3] was greater than 512 µM. The MBEC [4] was 512/>512 µM, the MBIC [4] was 512/>512 µM and the IC50 (MCF-7) was 33.2 µM. It also gave an IC50 (U251MG) of 30.8 µM, an IC50 (PC-3) of 5.09 µM and an IC50 (HCT116) of 10.8 µM. It also gave an IC50 (H838) of 10.8 µM, an MBEC (S. aureus (NCTC 10788) [5]) greater than 512 µM and an MBIC (S. aureus (NCTC 10788) [5]) of 128 µM. The IC50 [6] was 5.09 to 33.2 µM, the MBC (S. aureus (NCTC 10788) [7]) was 193 µg/mL and the MIC (S. aureus (NCTC 10788) [7]) was 32 µM. It also gave an MBC (MRSA (NCTC 12493) [8]) of 1541 µg/mL, an MIC (MRSA (NCTC 12493) [8]) of 770 µg/mL and an MBC (E. faecium (NTCC 12697) [9]) of 771 µg/mL. For the same molecule, the MIC (E. faecium (NTCC 12697) [9]) was 770 µg/mL, the MBC [10] was 771 µg/mL and the MIC [10] was 385 µg/mL. It also gave an MBC (E. coli (ATCC 8739) [11]) of 193 µg/mL, an MIC (E. coli (ATCC 8739) [11]) of 32 µM and an MBC [12] of 1541 µg/mL. The MIC [12] was 385 µg/mL, the MBEC (E. faecium (NTCC 12697) [13]) was greater than 512 µM and the MBIC (E. faecium (NTCC 12697) [13]) was greater than 512 µM.

`CC[C@H](C)[C@H](NC(=O)[C@H](CCCCN)NC(=O)[C@H](CO)NC(=O)[C@H](CCCCN)NC(=O)[C@H](CC(C)C)NC(=O)[C@H](CCCCN)NC(=O)[C@H](CC(=O)O)NC(=O)[C@H](CC(C)C)NC(=O)[C@H](CC(C)C)NC(=O)[C@@H](NC(=O)[C@H](C)NC(=O)[C@H](C)NC(=O)[C@@H](NC(=O)[C@H](CC(N)=O)NC(=O)[C@H](CCCCN)NC(=O)[C@H](C)NC(=O)[C@@H](NC(=O)[C@H](CC(N)=O)NC(=O)[C@H](CCCCN)NC(=O)[C@H](C)NC(=O)[C@@H](NC(=O)[C@H](CC(=O)O)NC(=O)[C@H](CCSC)NC(=O)[C@H](Cc1ccccc1)NC(=O)CN)[C@@H](C)O)C(C)C)C(C)C)[C@@H](C)O)C(=O)N[C@H](C(=O)NCC(=O)NCC(=O)N[C@@H](CO)C(=O)O)[C@@H](C)O` [[Ser^23,29]R2AW] (H-GFMDTAKNVAKNVAATLLDKLKSKITGGS-OH) gave an MBEC (E. coli (ATCC 8739) [1]) of 512 µM, an MBIC (E. coli (ATCC 8739) [1]) of 128 µM and a hemolysis at 2 h (Haemolysis assay) of roughly 10%. It also gave an MBEC (MRSA (NCTC 12493) [2]; MRSA (NCTC 12493)) greater than 512 µM, an MBIC (MRSA (NCTC 12493) [2]; MRSA (NCTC 12493)) of 256 µM and an MBEC [3] greater than 512 µM. It also gave an MBIC [3] greater than 512 µM, an MBEC [4] greater than 512 µM and an MBIC [4] greater than 512 µM. The IC50 (MCF-7) was 62.7 µM, the IC50 (U251MG) was 37.3 µM and the IC50 (PC-3) was 17.4 µM. It also gave an IC50 (HCT116) of 31.6 µM, an IC50 (H838) of 19.3 µM and an MBEC (S. aureus (NCTC 10788) [5]) greater than 512 µM. The MBIC (S. aureus (NCTC 10788) [5]) was 128 µM, the MBC (S. aureus (NCTC 10788) [7]) was 191 µg/mL and the MIC (S. aureus (NCTC 10788) [7]) was 64 µM. The MBC (MRSA (NCTC 12493) [8]) was 1526 µg/mL, the MIC (MRSA (NCTC 12493) [8]) was 763 µg/mL and the MBC (E. faecium (NTCC 12697) [9]) was 1526 µg/mL. The MBC [10] was 1526 µg/mL, the MIC [10] was 763 µg/mL and the MBC (E. coli (ATCC 8739) [11]) was 381 µg/mL. The MIC (E. coli (ATCC 8739) [11]) was 64 µM, the MBC [12] was greater than 1526 µg/mL and the MIC [12] was 1526 µg/mL. It also gave an MBEC (E. faecium (NTCC 12697) [13]) greater than 512 µM and an MBIC (E. faecium (NTCC 12697) [13]) greater than 512 µM.
